Measured values from article PMC6658782, “The Novel Arylamidine T-2307 Selectively Disrupts Yeast Mitochondrial Function by Inhibiting Respiratory Chain Complexes” (Antimicrobial Agents and Chemotherapy, 2019).
In brackets after ≈: the same amount, converted by molar mass.

Assays:
[1] = molecular target: respiratory chain complex IV (Candida albicans, UniProt P0C8K9+Q9B1P9+Q9B8D8); test: Respiratory chain enzymatic activity, complex IV, C. albicans; format: biochemical; conditions: C. albicans mitochondria; read-out: IC50 ± SD, Complex IV
[2] = molecular target: respiratory chain complex I (Bos taurus, UniProt P03887+P17694+P42026); test: MitoCheck complex I activity assay, bovine heart mitochondria; format: biochemical
Procedure: The enzymatic activities of bovine heart mitochondrial respiratory chain complexes were determined using MitoCheck complex I, complex II/III, and complex IV activity assay kits (Cayman Chemical, Ann Arbor, MI, USA). Bovine heart mitochondria from these kits were used for experiments. The experiments were performed following the manufacturer’s instructions. In the experiments, 2 μM rotenone, 1 mM KCN, and both 1 mM TTFA and 5 μg/ml antimycin A served as positive controls for the inhibition of complex I, complex IV, and complexes II plus III, respectively.
In all experiments, the reaction rate of each enzyme was determined by calculating the slope of the linear portion of the curve. Complex I activity in C. albicans was calculated by subtracting the rotenone-insensitive enzymatic activity (with 10 μM rotenone) from the NADH dehydrogenase activity (without rotenone).
OCRs in isolated mitochondria and intracellular ATP levels were compared between the control and treatment groups using the parametric Dunnett’s multiple-comparison test. P values of <0.05 (comparison of multiple groups) were considered statistically significant. IC50 values were determined from dose-response curves compared with untreated control samples using a four-parameter logistic curve-fitting analysis. Data were analyzed using JMP 13.0 (SAS Institute Japan Ltd., Tokyo, Japan).

C. albicans = conditions: cited from earlier work
[3] = molecular target: respiratory chain complex IV (Saccharomyces cerevisiae, UniProt P00401+P00410+P00420); test: Respiratory chain enzymatic activity, complex IV, S. cerevisiae; format: biochemical
[4] = molecular target: respiratory chain complex IV (Bos taurus, UniProt P00396+P00415+P68530); test: MitoCheck complex IV activity assay, bovine heart mitochondria; format: biochemical
C. albicans cells = conditions: cited from earlier work
[5] = molecular target: respiratory chain complex II + III (Saccharomyces cerevisiae, UniProt P00163+P07143+P08067); test: Respiratory chain enzymatic activity, complexes II plus III, S. cerevisiae; format: biochemical
NADH dehydrogenase = NADH dehydrogenase activity, C. albicans; format: biochemical, Candida albicans; conditions: C. albicans mitochondria; involves complex I activity; read-out: IC50 against NADH dehydrogenase activity
[6] = molecular target: respiratory chain complex II (Saccharomyces cerevisiae, UniProt P21801+P33421+P37298+Q00711); test: Respiratory chain enzymatic activity, complex II, S. cerevisiae; format: biochemical
rat liver mitochondria = test system: rat liver mitochondria; parameters: method as in PMID 22948882; conditions: cited from earlier work
[7] = molecular target: T1, respiratory chain complex II + III (Candida albicans, UniProt A0A1D8PHA3+A0A1D8PJX3+P0C8L0); test: Respiratory chain enzymatic activity, complexes II plus III, C. albicans; format: biochemical; conditions: C. albicans mitochondria; read-out: IC50 ± SD, Complex II + III
T1 sequence (P0C8L0 1-387): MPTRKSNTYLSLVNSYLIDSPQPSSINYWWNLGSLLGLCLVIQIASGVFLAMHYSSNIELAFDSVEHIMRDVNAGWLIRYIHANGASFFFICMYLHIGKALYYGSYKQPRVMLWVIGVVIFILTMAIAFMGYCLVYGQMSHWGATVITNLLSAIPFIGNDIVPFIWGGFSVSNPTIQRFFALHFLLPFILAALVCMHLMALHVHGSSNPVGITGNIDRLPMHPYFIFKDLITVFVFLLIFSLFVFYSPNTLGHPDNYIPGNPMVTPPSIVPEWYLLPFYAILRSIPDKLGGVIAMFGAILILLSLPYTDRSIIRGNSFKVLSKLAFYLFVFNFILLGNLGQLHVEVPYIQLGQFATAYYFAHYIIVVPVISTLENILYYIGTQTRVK
T1 sequence (A0A1D8PHA3 43-288): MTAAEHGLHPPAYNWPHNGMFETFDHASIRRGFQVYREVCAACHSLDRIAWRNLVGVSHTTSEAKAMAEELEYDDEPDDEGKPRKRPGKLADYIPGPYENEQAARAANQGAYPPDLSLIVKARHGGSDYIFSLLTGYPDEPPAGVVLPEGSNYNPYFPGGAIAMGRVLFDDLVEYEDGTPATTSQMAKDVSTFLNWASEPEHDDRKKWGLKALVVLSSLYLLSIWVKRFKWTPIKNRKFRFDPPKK
T1 sequence (A0A1D8PJX3 30-213): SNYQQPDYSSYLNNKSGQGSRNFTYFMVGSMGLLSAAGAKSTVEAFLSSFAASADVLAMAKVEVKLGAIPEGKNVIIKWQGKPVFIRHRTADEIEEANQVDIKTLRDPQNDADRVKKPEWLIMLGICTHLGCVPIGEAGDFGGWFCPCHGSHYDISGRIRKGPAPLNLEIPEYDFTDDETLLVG

S. cerevisiae = conditions: cited from earlier work
[8] = molecular target: respiratory chain complex I (Candida albicans, UniProt Q9B8D6); test: Respiratory chain enzymatic activity, complex I (rotenone-sensitive), C. albicans; format: biochemical; conditions: read-out: IC50 ± SD, Complex I

respiratory chain complex IV (Candida albicans, UniProt P0C8K9+Q9B1P9+Q9B8D8), sequence (P0C8K9 whole entry): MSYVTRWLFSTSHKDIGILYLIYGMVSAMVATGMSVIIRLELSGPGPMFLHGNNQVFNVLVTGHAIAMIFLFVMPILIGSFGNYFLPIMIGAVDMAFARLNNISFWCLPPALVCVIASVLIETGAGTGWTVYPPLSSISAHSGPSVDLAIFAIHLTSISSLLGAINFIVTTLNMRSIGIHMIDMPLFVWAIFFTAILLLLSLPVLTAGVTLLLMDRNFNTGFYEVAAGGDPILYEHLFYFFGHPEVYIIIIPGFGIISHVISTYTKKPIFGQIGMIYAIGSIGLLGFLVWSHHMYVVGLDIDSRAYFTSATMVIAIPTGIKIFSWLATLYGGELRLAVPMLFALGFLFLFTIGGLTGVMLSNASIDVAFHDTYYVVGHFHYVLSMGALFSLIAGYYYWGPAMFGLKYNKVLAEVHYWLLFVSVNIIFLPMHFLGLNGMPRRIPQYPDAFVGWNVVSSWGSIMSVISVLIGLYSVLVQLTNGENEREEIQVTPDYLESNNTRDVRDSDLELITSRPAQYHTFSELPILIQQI
respiratory chain complex IV (Candida albicans, UniProt P0C8K9+Q9B1P9+Q9B8D8), sequence (Q9B8D8 whole entry): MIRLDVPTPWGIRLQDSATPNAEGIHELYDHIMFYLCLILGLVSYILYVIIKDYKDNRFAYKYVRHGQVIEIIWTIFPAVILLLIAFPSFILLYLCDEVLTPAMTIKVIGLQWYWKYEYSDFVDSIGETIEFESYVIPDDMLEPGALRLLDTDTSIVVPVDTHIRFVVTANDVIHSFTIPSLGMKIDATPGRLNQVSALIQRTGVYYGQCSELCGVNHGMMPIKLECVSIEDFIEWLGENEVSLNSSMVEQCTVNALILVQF
respiratory chain complex IV (Candida albicans, UniProt P0C8K9+Q9B1P9+Q9B8D8), sequence (Q9B1P9 whole entry): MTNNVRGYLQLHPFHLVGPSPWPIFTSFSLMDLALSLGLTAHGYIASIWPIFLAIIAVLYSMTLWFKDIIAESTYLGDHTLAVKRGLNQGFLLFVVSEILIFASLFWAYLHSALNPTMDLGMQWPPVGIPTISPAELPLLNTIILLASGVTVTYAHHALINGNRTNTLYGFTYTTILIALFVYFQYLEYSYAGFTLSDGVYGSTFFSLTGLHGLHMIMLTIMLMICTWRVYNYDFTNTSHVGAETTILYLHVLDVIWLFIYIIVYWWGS
respiratory chain complex II, sequence (P21801 21-266): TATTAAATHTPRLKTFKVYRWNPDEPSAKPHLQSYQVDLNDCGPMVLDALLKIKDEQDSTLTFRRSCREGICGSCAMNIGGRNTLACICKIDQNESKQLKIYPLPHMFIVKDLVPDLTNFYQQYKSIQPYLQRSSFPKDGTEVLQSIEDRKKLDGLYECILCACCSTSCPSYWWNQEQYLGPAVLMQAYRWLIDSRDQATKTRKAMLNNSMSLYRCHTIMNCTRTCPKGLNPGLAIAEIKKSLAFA
respiratory chain complex II, sequence (P33421 51-198): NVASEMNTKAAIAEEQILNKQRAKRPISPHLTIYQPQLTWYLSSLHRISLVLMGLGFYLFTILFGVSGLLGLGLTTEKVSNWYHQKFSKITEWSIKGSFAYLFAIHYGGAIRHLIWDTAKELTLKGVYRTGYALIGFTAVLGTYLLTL
respiratory chain complex II, sequence (P37298 32-181): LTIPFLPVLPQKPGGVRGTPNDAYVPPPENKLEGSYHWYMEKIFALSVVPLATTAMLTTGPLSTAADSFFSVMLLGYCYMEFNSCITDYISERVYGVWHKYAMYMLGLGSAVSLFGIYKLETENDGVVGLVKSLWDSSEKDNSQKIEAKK
respiratory chain complex II, sequence (Q00711 29-640): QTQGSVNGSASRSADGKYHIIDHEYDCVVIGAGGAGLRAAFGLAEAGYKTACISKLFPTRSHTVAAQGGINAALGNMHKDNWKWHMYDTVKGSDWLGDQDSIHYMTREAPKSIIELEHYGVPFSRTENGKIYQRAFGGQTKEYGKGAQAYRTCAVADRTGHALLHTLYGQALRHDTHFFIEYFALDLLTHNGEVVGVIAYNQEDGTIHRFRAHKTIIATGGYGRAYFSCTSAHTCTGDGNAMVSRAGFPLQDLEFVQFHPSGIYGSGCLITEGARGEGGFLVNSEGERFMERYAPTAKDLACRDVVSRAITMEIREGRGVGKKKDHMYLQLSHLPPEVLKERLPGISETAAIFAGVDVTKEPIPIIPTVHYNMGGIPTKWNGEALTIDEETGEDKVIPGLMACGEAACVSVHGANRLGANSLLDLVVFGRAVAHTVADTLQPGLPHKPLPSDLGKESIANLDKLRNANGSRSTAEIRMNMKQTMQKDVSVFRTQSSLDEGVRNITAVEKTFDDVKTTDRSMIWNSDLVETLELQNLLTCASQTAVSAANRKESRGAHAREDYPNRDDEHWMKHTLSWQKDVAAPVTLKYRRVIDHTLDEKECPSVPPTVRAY

**Q.** Which results are given for N=C(N)c1ccc(OCCCC2CCN(CCCOc3ccc(C(=N)N)cc3)CC2)cc1 [T-2307]?
**A.** IC50 [1]: 225 ± 23 µM; IC50 ([2]; bovine heart mitochondria, read-out: IC50 ± SD, Complex I): > 3000 µM; remaining activity at 3000 µM ([2]; bovine, read-out: remaining enzymatic activity of complex I): 68%; MIC reported previously (C. albicans): 4 nM (≈ 1.75 ng/mL); IC50 [3]: 149 ± 23 µM; IC50 for complex IV in bovine heart mitochondria relative to yeast mitochondria [4]: > 10 fold; IC50 ([4]; bovine heart mitochondria, read-out: IC50 ± SD, Complex IV): > 3000 µM; remaining activity at 3000 µM ([4]; read-out: remaining enzymatic activity of complex IV): 92%; concentration in cells relative to extracellular medium (C. albicans cells): > 3,000 fold; IC50 [5]: 271 ± 37 µM; IC50 (NADH dehydrogenase): 2000 µM; IC50 [6]: 755 ± 73 µM; effect on the MMP and on respiration in rat liver mitochondria (rat liver mitochondria): little effect; IC50 [7]: 220 ± 55 µM; MIC reported previously (S. cerevisiae): 2 nM (≈ 0.875 ng/mL); IC50 [8]: 344 ± 32 µM
